{"source": "patent US8932986B2", "about": "“Herbicidal composition” (Sumitomo Chemical Company, Limited, priority 2012, dated 2015)", "key": {"Digitaria ciliaris [1]": {"system": "Digitaria ciliaris", "test": "Herbicidal activity, soil spray on day of sowing, pot test in greenhouse, evaluated after seven days (Example 2)", "format": "in vivo", "details": "20 g/ha; sprayed on day of sowing; seven days after spray treatment; scale 0 to 100", "procedure": "(§1) Digitaria ciliaris was sowed on a plastic pot filled with a soil. Following the sowing, on the day of the sowing, a mixed liquid of flumioxazin, pyrasulfotole, and mefenpyr-diethyl was sprayed uniformly so that the amounts of the agents might become those shown in Table 2 in a sprayed water amount of 500 L/ha. The mixed liquid of flumioxazin, pyrasulfotole, and mefenpyr-diethyl was prepared by dissolving the respective compounds in prescribed amounts separately in acetone containing 2% (w/v) of Tween 20 (surfactant, produced by Tokyo Chemical Industry Co., Ltd.), diluting the respective solutions with water and then combining them, followed by dilution with water so that the final acetone concentration of the spray liquid might be 10% by volume. After the spray treatment, the pot was carried into a greenhouse. Seven days after the spray treatment, the herbicidal activity to Digitaria ciliaris was evaluated."}, "Digitaria ciliaris [2]": {"system": "Digitaria ciliaris", "test": "Herbicidal activity, soil spray on day of sowing, pot test in greenhouse, evaluated after ten days (Example 3)", "format": "in vivo", "details": "2 g/ha; sprayed on day of sowing; ten days after spray treatment; scale 0 to 100", "procedure": "as §1, with “those as” for “those”, “Table 3” for “Table 2”, “greenhouse. Ten” for “greenhouse. Seven”"}}, "data": [{"smiles": "C#CCN1C(=O)COc2cc(F)c(N3C(=O)C4=C(CCCC4)C3=O)cc21", "note": "[Flumioxazin]", "values": [{"measurement": "Herbicidal activity Digitaria ciliaris", "setting": "Digitaria ciliaris [1]", "value": 10}, {"measurement": "Herbicidal activity Digitaria ciliaris", "setting": "Digitaria ciliaris [2]", "value": 40}]}]}
